Reference: patent US8410141B2, “Insecticidal arylpyrrolines” (Bayer Cropscience AG, priority 2009, dated 2013)

Key:
Assay type in all cases: in vivo
[1] = system: Two-Spotted Spider Mite (Tetranychus urticae); assay: Test against two-spotted spider mite (Tetranychus urticae), spray; conditions: 100 ppm; sprayed on kidney bean; adult mites; after 7 days
Description: (§1) Unless not mentioned otherwise, the test solutions were prepared as follows:
(§2) Containing as solvent: Dimethylformamide, 3 parts by weight; and as emulsifier: Polyoxyethylene alkyl phenyl ether, 1 part by weight. To prepare the test solution, 1 part by weight of an active compound is mixed with the above-mentioned amount of solvent containing the above-mentioned amount of emulsifier, and the mixture is diluted with water to the desired concentration.
50 to 100 adult two-spotted spider mites were inoculated onto the leaves of kidney beans at the two-true leaf stage, which plant had been cultivated in a pot having a diameter of 6 cm. After one day, test solution at the appropriate concentration was sprayed thereon in a sufficient amount using a spray gun. After the spraying, the plant pot was placed inside a greenhouse, and after 7 days, the acaricidal activity was calculated. An acaricidal activity of 100% means that all mites were killed, whereas an acaricidal activity of 0% means that no mite was killed.

[2] = system: Cucurbit Leaf Beetle (Aulacophora femoralis); assay: Test against cucurbit leaf beetle (Aulacophora femoralis), leaf immersion; conditions: 100 ppm; cucumber leaves immersed; second-instar larvae; after 7 days
Description: as §1, §2
Cucumber leaves were immersed in the test solution at the appropriate concentration, and the leaves were dried in air. The leaves were then placed in a plastic cup containing sterilized black soil, and five second-instar larvae of cucurbit leaf beetle were released therein. The plastic cup was placed in a temperature-controlled chamber at 25° C. After 7 days, the number of dead larvae was counted, and thus the insecticidal activity was calculated. An insecticidal activity of 100% means that all beetles were killed, whereas an insecticidal activity of 0% means that no beetle was killed.

[3] = system: Tobacco Cutworm (Spodoptera litura) Larvae; assay: Test against tobacco cutworm (Spodoptera litura) larvae, leaf immersion; conditions: 100 ppm; sweet potato leaves immersed; third-instar larvae; after 7 days
Description: as §1, §2
The leaves of sweet potato were immersed in the test solution at the appropriate concentration, and the leaves were dried in air. The leaves were then placed in a petri dish having a diameter of 9 cm, and ten third-instar larvae of tobacco cutworm were released therein. The petri dish was placed in a temperature-controlled chamber at 25° C. After 2 days and 4 days sweet potato leaves were additionally added. After 7 days, the number of dead larvae was counted to calculate the insecticidal activity. An insecticidal activity of 100% means that all larvae were killed, whereas an insecticidal activity of 0% means that no larva was killed. In the current test, the results of two petri dishes for each partition were averaged.

[4] = system: Tobacco Cutworm (Spodoptera litura) Larvae; assay: Test against tobacco cutworm larvae, root systemicity; conditions: 100 ppm; broccoli seedling roots dipped 3 days; second-instar larvae; after 4 days
Description: as §1, §2
The roots of seedling of broccoli at 1.2 leaf stage were dipped into the test solution at the appropriate concentration. After 3 days, the leaves were cut and placed in a petri dish having a diameter of 9 cm. And then five second-instar larvae of tobacco cutworm were released therein. The petri dish was placed in a temperature-controlled room at 25° C. After 4 days, the number of dead larvae was counted, to calculate the insecticidal activity. An insecticidal activity of 100% means that all larvae were killed, whereas an insecticidal activity of 0% means that no larva was killed.

Musca domestica = Musca domestica test; conditions: 100 ppm; sponge with sugar and compound solution; adults; after 2 days
Description: (§3) Solvent: dimethyl sulfoxide
To produce a suitable preparation of active compound, 10 mg of active compound are dissolved in 0.5 ml solvent, and the concentrate is diluted with water to the desired concentration. Prior to the assay, a piece of kitchen sponge is soaked with a mixture of sugar and compound solution and placed into a container. 10 adults (Musca domestica) are placed into the container and closed with a perforated lid. After 2 days mortality in % is determined. 100% means that all the flies have been killed; 0% means that none of the flies have been killed.

[5] = system: Nymphs of the tick Amblyomma hebraeum; assay: Amblyomma hebraeum test (AMBYHE); conditions: 100 ppm; nymphs immersed one minute; after 42 days
Description: as §3
To produce a suitable preparation of active compound, 10 mg of active compound are dissolved in 0.5 ml solvent, and the concentrate is diluted with water to the desired concentration. Nymphs of the tick Amblyomma hebraeum are placed in perforated plastic beakers and immersed in aqueous compound solution for one minute. Ticks are transferred to a filter paper in a petri dish and incubated in a climate chamber for 42 days.
After 42 days mortality in % is determined. 100% means that all the ticks have been killed; 0% means that none of the ticks have been killed.

[6] = system: Tobacco Cutworm (Spodoptera litura) Larvae; assay: Test against tobacco cutworm larvae, systemic test by soil drench; conditions: 250 ppm, 20 ml soil drench on potted broccoli, leaves cut after 7 days, third-instar larvae
Description: as §1, §2
20 ml of the test solution at the appropriate concentration was treated on the soil surface of potted broccoli seedling at 2 to 3 leaf stage. After 7 days, the leaves were cut and placed in a petri dish having a diameter of 9 cm. And then ten third-instar larvae of tobacco cutworm were released therein. The petri dish was placed in a temperature-controlled room at 25° C. After 7 days, the number of dead larvae was counted to calculate the insecticidal activity. An insecticidal activity of 100% means that all larvae were killed, whereas an insecticidal activity of 0% means that no larva was killed. […] The comparative compound A is No. 1-72 in WO2009/097992.

[7] = system: adult engorged female Boophilus microplus ticks; assay: Boophilus microplus (dip); conditions: 100 ppm; ticks immersed one minute; after 7 days
Description: Solvent: Dimethylsulfoxid
To produce a suitable preparation of active compound, 10 mg of active compound are dissolved in 0.5 ml solvent, and the concentrate is diluted with water to the desired concentration. Eight to ten adult engorged female Boophilus microplus ticks are placed in perforated plastic beakers and immersed in aqueous compound solution for one minute. Ticks are transferred to a filter paper in a plastic tray. Egg deposition of fertile eggs is monitored after. After 7 days mortality in % is determined. 100% means that all the ticks have been killed; 0% means that none of the ticks have been killed.

Ctenocephalides felis = Ctenocephalides felis test (CTECFE); conditions: 100 ppm in cattle blood; adult unfed fleas; after 2 days
Description: as §3
To produce a suitable preparation of active compound, 10 mg of active compound are dissolved in 0.5 ml solvent, and the concentrate is diluted with cattle blood to the desired concentration. Approximately 20 adult unfed (Ctenocepahlides felis) are placed in flea chambers. The blood chamber, sealed with parafilm on the bottom, are filled with cattle blood supplied with compound solution and placed on top of the flea chamber, so that the fleas are able to suck the blood. The blood chamber is heated to 37° C. whereas the flea chamber is kept at room temperature. After 2 days mortality in % is determined. 100% means that all the fleas have been killed; 0% means that none of the fleas have been killed.

Compound `FC(F)(F)C1(c2cc(Cl)nc(Cl)c2)CN=C(c2ccc(-n3cncn3)cc2)C1` (stereo not drawn) [1-2] has an acaricidal activity rate [1] of 100%, an insecticidal activity [2] of 100% and an insecticidal activity [3] of 100%. The insecticidal activity [4] was 100% and the mortality (Musca domestica) was 90%.
Compound `N#Cc1cc(C2=NCC(c3cc(Cl)cc(C(F)(F)F)c3)(C(F)(F)F)C2)ccc1-n1cncn1` (stereo not drawn) [1-10] has a mortality [5] of 100%, an acaricidal activity rate [1] of 100% and an insecticidal activity [2] of 100%. For the same compound, the insecticidal activity [3] was 100% and the insecticidal activity [4] was 100%.
`N#Cc1cc(C2=NCC(c3cc(Cl)c(F)c(Cl)c3)(C(F)(F)F)C2)ccc1-n1cncn1` (stereo not drawn) [1-13] gave a mortality [5] of 100%, an acaricidal activity rate [1] of 100% and an insecticidal activity [2] of 100%. The insecticidal activity [3] was 100% and the insecticidal activity [4] was 100%.
`N#Cc1cc(C2=NCC(c3cc(Cl)c(F)c(Cl)c3F)(C(F)(F)F)C2)ccc1-n1cncn1` (stereo not drawn) [1-20] was tested, and the mortality [5] was 100%, the acaricidal activity rate [1] was 100% and the insecticidal activity [2] was 100%. For the same compound, the insecticidal activity [3] was 100% and the insecticidal activity [4] was 100%.
`N#Cc1cc(C2=NCC(c3ccnc(C(F)(F)F)c3)(C(F)(F)F)C2)ccc1-n1cncn1` (stereo not drawn) [1-21] showed an insecticidal activity [6] of 100%, an acaricidal activity rate [1] of 100% and an insecticidal activity [2] of 100%. For the same compound, the insecticidal activity [3] was 100%, the insecticidal activity [4] was 100% and the mortality (Musca domestica) was 80%.
For `Fc1cc(C2=NCC(c3cc(Cl)c(Cl)c(Cl)c3)(C(F)(F)F)C2)ccc1-n1cncn1` (stereo not drawn) [1-29], the mortality [7] was 95%, the insecticidal activity [2] was 100% and the insecticidal activity [3] was 100%.
With `FC(F)(F)C1(c2cc(Cl)c(Cl)c(Cl)c2)CN=C(c2ccc(-n3cncn3)c(Cl)c2)C1` (stereo not drawn) [1-30] the acaricidal activity rate [1] was 100%, the insecticidal activity [2] was 100% and the mortality (Ctenocephalides felis) was 90%. It also gave an insecticidal activity [3] of 100%.
Compound `N#Cc1cc(C2=NCC(c3cc(Cl)c(Cl)c(Cl)c3)(C(F)(F)F)C2)cnc1-n1cncn1` (stereo not drawn) [1-52] has a mortality [7] of 90%, an acaricidal activity rate [1] of 100% and an insecticidal activity [2] of 100%. For the same compound, the insecticidal activity [3] was 100%.
Compound `N#Cc1cc(C2=NCC(c3cc(Cl)nc(Cl)c3)(C(F)(F)F)C2)cnc1-n1cncn1` (stereo not drawn) [1-66] has an insecticidal activity [2] of 100%, an insecticidal activity [3] of 100% and an insecticidal activity [4] of 100%. The mortality (Musca domestica) was 80%.
For `N#Cc1cc(C2=NCC(c3cccc(C(F)(F)F)n3)(C(F)(F)F)C2)ccc1-n1cncn1` (stereo not drawn) [1-126], the insecticidal activity [2] was 100%, the mortality (Ctenocephalides felis) was 90% and the insecticidal activity [3] was 100%. For the same compound, the insecticidal activity [4] was 100% and the mortality (Musca domestica) was 90%.
`N#Cc1cc(C2=NCC(c3cncc(Cl)c3)(C(F)(F)F)C2)ccc1-n1cncn1` (stereo not drawn) [1-480] showed an acaricidal activity rate [1] of 100%, an insecticidal activity [2] of 100% and a mortality (Ctenocephalides felis) of 90%.
`N#Cc1cc(C2=NCC(c3cccc(OC(F)F)c3)(C(F)(F)F)C2)ccc1-n1cncn1` (stereo not drawn) [1-483] was tested, and the acaricidal activity rate [1] was 100%, the insecticidal activity [2] was 100% and the mortality (Ctenocephalides felis) was 90%.
Compound `N#Cc1cc(C2=NCC(c3cc(OC(F)F)cc(OC(F)F)c3)(C(F)(F)F)C2)ccc1-n1cncn1` (stereo not drawn) [1-485] has a mortality [7] of 90%, an acaricidal activity rate [1] of 100% and an insecticidal activity [2] of 100%. The insecticidal activity [3] was 100% and the insecticidal activity [4] was 100%.
For `N#Cc1cc(C2=NCC(c3cc(Cl)c([N+](=O)[O-])c(Cl)c3)(C(F)(F)F)C2)ccc1-n1cncn1` (stereo not drawn) [1-489], the mortality [7] was 80%, the insecticidal activity [3] was 100% and the mortality (Musca domestica) was 80%.
